{"source": "ChEMBL document CHEMBL5131528", "about": "“2-Aminoquinazolines as LRRK2 Inhibitors for Treating Parkinson's Disease” (ACS Med Chem Lett, 2022)", "target": "Leucine-rich repeat serine/threonine-protein kinase 2 (Homo sapiens, UniProt Q5S007, G2019S)", "sequence (Q5S007 whole entry G2019S, the tested form may be a part)": "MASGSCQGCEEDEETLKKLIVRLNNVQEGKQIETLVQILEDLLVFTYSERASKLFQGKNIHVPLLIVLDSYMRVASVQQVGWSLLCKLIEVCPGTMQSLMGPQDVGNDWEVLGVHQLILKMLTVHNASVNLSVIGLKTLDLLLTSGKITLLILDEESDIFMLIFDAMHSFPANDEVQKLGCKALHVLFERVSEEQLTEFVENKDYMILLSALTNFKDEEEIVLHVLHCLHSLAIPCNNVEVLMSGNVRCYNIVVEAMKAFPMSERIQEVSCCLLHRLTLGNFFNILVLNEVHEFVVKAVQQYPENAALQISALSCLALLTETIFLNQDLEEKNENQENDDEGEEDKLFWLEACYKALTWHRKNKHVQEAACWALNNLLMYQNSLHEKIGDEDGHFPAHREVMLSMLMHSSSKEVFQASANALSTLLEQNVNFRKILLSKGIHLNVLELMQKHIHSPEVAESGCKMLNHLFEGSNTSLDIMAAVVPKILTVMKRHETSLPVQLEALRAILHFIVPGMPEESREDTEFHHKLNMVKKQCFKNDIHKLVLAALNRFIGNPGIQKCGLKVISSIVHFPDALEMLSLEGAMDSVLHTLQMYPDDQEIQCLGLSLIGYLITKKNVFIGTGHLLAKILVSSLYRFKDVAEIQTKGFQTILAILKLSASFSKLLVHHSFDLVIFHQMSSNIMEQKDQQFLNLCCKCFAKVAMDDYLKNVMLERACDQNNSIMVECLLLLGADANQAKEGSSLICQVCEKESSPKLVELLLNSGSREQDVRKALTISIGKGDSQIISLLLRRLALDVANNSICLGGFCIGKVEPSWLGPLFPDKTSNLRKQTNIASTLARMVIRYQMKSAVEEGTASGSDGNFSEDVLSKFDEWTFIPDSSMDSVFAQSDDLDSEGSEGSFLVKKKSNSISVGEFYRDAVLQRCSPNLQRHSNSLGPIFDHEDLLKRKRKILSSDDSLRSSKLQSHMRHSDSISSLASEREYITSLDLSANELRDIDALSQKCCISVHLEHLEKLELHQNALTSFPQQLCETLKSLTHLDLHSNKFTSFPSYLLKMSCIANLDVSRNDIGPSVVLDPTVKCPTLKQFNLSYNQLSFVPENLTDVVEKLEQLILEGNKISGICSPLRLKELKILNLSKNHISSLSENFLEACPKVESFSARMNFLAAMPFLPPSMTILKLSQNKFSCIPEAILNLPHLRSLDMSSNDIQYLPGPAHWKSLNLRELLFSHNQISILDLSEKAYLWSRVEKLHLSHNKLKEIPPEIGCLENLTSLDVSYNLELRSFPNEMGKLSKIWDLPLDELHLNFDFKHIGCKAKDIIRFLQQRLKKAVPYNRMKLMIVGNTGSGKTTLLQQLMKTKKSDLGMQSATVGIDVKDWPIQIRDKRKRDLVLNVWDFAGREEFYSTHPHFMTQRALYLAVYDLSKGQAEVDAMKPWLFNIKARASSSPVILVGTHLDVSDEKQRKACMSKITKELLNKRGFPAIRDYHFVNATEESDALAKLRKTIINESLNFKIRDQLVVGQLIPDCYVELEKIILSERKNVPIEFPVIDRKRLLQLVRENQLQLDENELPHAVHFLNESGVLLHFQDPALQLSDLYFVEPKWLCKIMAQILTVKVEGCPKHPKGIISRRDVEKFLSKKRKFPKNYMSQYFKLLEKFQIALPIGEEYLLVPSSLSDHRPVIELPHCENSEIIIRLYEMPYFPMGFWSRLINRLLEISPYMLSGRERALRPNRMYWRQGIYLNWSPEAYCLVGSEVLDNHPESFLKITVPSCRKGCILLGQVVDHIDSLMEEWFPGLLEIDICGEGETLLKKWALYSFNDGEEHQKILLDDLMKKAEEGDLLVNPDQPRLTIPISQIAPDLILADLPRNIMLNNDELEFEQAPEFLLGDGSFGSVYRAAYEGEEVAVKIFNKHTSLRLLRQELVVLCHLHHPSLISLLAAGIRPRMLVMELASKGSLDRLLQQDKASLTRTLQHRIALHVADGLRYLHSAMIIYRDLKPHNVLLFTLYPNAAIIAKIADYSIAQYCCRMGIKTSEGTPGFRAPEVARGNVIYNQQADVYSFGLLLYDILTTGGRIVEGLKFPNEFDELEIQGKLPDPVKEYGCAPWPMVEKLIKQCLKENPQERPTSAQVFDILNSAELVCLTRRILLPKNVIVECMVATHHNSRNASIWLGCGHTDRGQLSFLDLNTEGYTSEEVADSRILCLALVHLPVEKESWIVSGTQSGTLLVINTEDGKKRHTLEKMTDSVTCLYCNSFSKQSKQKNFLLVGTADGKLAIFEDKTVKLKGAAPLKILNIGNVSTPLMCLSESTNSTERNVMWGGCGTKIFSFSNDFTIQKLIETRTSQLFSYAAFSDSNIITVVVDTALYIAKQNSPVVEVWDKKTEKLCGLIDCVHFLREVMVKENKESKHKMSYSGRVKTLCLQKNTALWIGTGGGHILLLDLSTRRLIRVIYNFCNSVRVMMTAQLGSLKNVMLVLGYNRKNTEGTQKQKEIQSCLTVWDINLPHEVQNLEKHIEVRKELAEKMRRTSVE", "assay": "Inhibition of GST-tagged truncated human LRRK2 G2019S mutant using fluorescein labeled LRRKtide peptide as substrate preincubated for 15 mins followed by substrate addition and measured after 90 mins in presence of ATP at Km concentration by TR-FRET Lanthascreen assay"}
{"smiles": "CC1(O)CCN(c2cc3nc(Nc4cnn(C5CC5)c4Cl)ncc3cc2Cl)C1", "note": "(stereo unspecified)", "values": [{"measurement": "IC50", "result": 0.169, "unit": "nM"}]}
{"smiles": "Clc1cc2cnc(Nc3cnn(C45CC(C4)C5)c3Cl)nc2cc1N1CCC2(CCCO2)CC1", "values": [{"measurement": "IC50", "result": 0.174, "unit": "nM"}]}
{"smiles": "CC(C)(C)Cn1cc(Nc2ncc3cc(Cl)c(N4CCC(C5(C)COC5)CC4)cc3n2)cn1", "values": [{"measurement": "IC50", "result": 0.187, "unit": "nM"}]}
{"smiles": "CC(C)(O)CN1CCN(c2cc3nc(Nc4cnn(C5CC5)c4Cl)ncc3cc2Cl)CC1", "values": [{"measurement": "IC50", "result": 0.0759, "unit": "nM"}]}
{"smiles": "CC1NN=CC1Nc1ncc2cc(Cl)c(N3CCC(C)(O)C(C)C3)cc2n1", "note": "(stereo unspecified)", "values": [{"measurement": "IC50", "result": 0.0646, "unit": "nM"}]}
{"smiles": "Cc1c(Nc2ncc3cc(Cl)c(N4C(=O)OC[C@H]4C)cc3n2)cnn1C1CCOCC1", "values": [{"measurement": "IC50", "result": 0.451, "unit": "nM"}]}
